{"source": "paper PMC9501633", "about": "“Synthesis, Characterisation and Mechanism of Action of Anticancer 3-Fluoroazetidin-2-ones” (Pharmaceuticals, 2022)", "key": {"[1]": {"assay": "AlamarBlue cell viability assay, non-tumourigenic cells", "assay_type": "cell-based, human", "conditions": "human, HEK-293T cells (non-tumourigenic), 1 μM", "protocol": "(§1) The cytotoxicity of the potent β-lactam 33 was investigated in the non-tumourigenic HEK-293T cell line (normal human embryonic kidney) at 72 h. […] For example, the cell viability of HEK cells at 1 μM was 88% in contrast to the cell viability of 36% for MCF-7 cells at 1 μM.\n(§2) Cells were seeded at a density of 5 × 10^3 cells/well (MCF-7 and MDA-MB-231) and 1 × 10^4 cells/well (HEK-293T) in 96-well plates (200 μL per well). After 24 h, cells were then treated with medium alone, with vehicle (1% ethanol (v/v)) or with CA-4 or β-lactam compounds at 1 μM and 10 μM concentrations. […] Cell proliferation for MCF-7 cells was analysed with the AlamarBlue assay (Invitrogen Corp.) as previously described by us. […] Fluorescence results were obtained with a 96-well fluorimeter with excitation at 530 nm and emission at 590 nm with results recorded as percentage viability relative to vehicle control (100%). […]\n(§3) Figure 4 Antiproliferative activity of 3-fluoro β-lactams on MCF-7, MDA-MB-231, Hs578T and Hs578T isogenic subclone Hs578T(i)8 breast cancer cells and non-tumourigenic HEK-293T cells. […] Cell viability was expressed as a percentage of vehicle control (ethanol 1% (v/v))-treated cells. […] Cell viability was expressed as a percentage of vehicle control (ethanol 1% (v/v))-treated cells and was measured by AlamarBlue assay (average of three independent experiments). […]"}, "HEK-293T cells": {"tested_on": "HEK-293T cells", "assay": "AlamarBlue cell viability assay, non-tumourigenic cells", "assay_type": "cell-based, human", "conditions": "Homo sapiens, 72 h", "protocol": "as §1, §2, §3"}}, "data": [{"smiles": "COc1ccc(C2C(F)C(=O)N2c2cc(OC)c(OC)c(OC)c2)cc1F", "note": "(centres unmarked) [Compound 33, 3-Fluoro-4-(3-fluoro-4-methoxyphenyl)-1-(3,4,5-trimethoxyphenyl)azetidin-2-one]", "values": [{"measurement": "viability at 72 h, 1 µM", "setting": "[1]", "value": 88, "unit": "%"}, {"measurement": "IC50", "setting": "HEK-293T cells", "value": "> 50", "unit": "µM"}]}]}
